Patent US7132547B2, “Preventives/remedies for urinary disturbance” (priority 2001, dated 2006)

How the values were obtained:
Hartley male guinea pigs = test: Effect on blood pressure in anesthetized guinea pigs; type: in vivo, guinea pig; settings: tamsulosin 0.01 mg/kg, Example 20 0.1 mg/kg
Protocol: Hartley male guinea pigs (Slc) weighing 300 to 350 g was anesthetized with urethane (1.2 g/kg), and retained, a cervical region was incised to expose a left common carotid artery. A polyethylene tube filled with physiological saline containing heparin (10 U.I./ml) was inserted into an artery, and blood pressure was measured with a pressure transducer. A cannulae for administering test compound was inserted into a vein at an end of left hind leg, and a test compound dissolved in distilled water was administered therethrough at 0.5 mL/kg. The blood pressure was recorded at 20 Hz using an analogue data inputting apparatus (MP-100, BIOPAC Systems), and analyzed by analyzing software (AcqKnowledge 3.5.3, BIOPAC Systems). Example compound and tamsulosin were studied for a dose at which effects were recognized in the aforementioned test a (Pressure Flow Study), and an average blood pressure just before administration of test compound and an average blood pressure 15 minutes after administration were measured. Data were statistically treated by Paired t-test.

[1] = system: Hartley male guinea pigs loaded with phenylephrine; test: Pressure Flow Study using guinea pigs loaded with phenylephrine; type: in vivo, guinea pig; settings: i.v., tamsulosin 0.01 mg/kg, Example 20 0.1 mg/kg, urethane-anesthetized, phenylephrine 3 μg/animal/min
Protocol: Hartley male guinea pigs (Slc) weighing 300 to 350 g was anesthetized with urethane (1.2 g/kg, i.p.), and a median was incised to expose bladder. Two polyethylene tubes were inserted into bladder, and one of them was used for injecting a physiological saline and the other was used for measuring a bladder internal pressure. A cannulae was inserted into a left femoral vein, and phenylephrine was continuously administered intravenously at 3 μg/animal/min until the completion of experiment. A physiological saline was injected into bladder at a rate of 0.3 mL/min, and injection was stopped when urination was confirmed. The urinated urine weight was measured with an electron balance (HX-400, A & D) at real time. Analogue data of bladder internal pressure and urine weight were inputted into an AD transducer (MP-100, BIOPAC Systems), and digital signals were analyzed with exclusive analyzing software (AcqKnowledge 3.5.3, BIOPAC Systems). The sampling rate of data was 10 Hz, and data of urination amount and urine flow rate were subjected to a lowcut filter at 0.5 Hz in order to remove noises. The value of urine weight was differentiated to calculate urine flow rate (Q), and maximum urine flow rate (Qmax) at urination and bladder internal pressure (Pves (Qmax)) at maximum urine flow were calculated. The urination weight 1 g was converted into 1 mL to calculate the urination amount, and divided by bladder volume to obtain voiding efficiency (Voiding Efficiency). Example compound was dissolved in DMSO, and the solution was intravenously administered at 0.5 mL/kg. 10 minutes after administration of test compound, urinary reflection was recorded again, and change in urine flow rate (ΔQmax), and change in bladder internal pressure (ΔPves(Qmax)) and voiding efficiency were assessed. The change in urine flow rate (ΔQmax) and change in bladder internal pressure (ΔPves. (Qmax)) were an amount of change (Δ value) obtained by subtracting each value before administration of test compound from each value after administration, and voiding efficiency was assessed by a relative value (% of pre-value) of after administration of test compound relative to before administration. Tamsulosin which is a known α1 receptor antagonist was measured similarly. A significance diffenence was tested by a Dunnett test by comparing with each value of a vehicle (DMSO)-administered group.

[2] = biological target: T1, human erythrocyte-derived acetylcholinesterase (Homo sapiens, UniProt P22303); test: Measurement of acetylcholinesterase inhibitory activity (acetylthiocholine / Ellman method); type: biochemical; settings: 50% inhibition concentration, repeated at least three times, read-out: AchE: IC50
T1 construct: Human erythrocyte-drived acetylcholinesterase (Sigma) was dissolved in distilled water; purchased Sigma; host or cells: human erythrocytes (natural source)
Protocol: a) Measurement of Acetylcholinesterase Inhibitory Activity
Acetylcholinesterase inhibitory activity of Example compounds was measured using human erythrocyte-derived acetylcholinesterase by an acetylthiocholine method (Ellman method).
Human erythrocyte-drived acetylcholinesterase (Sigma) was dissolved in distilled water to the concentration of 0.2 IU/mL to obtain an enzyme specimen. 20 μL of a drug solution, 30 μL of 80 mM Tris-HCL (pH 7.4), 50 μL of an enzyme specimen and 50 μL of 5 mM 5,5-dithio-bis (2-nitrobenzoic acid)(Sigma) were dispensed on a 96-well microplate, and this was shaken for 10 seconds. 50 μL of 4 mM acetylthiocholine iodide (Sigma) was added, this was shaken again and, immediately after, increase in absorbance at 414 nm was measured at 30 second intervals for 10 minutes. Enzyme activity was measured by the following equation: R=5.74×10^−7×ΔA (wherein R represents enzyme activity (mol), and ΔA represents increase in absorbance at 414 nm)
Regarding each compound, the experiment was repeated at least three times to obtain 50% inhibition concentration (IC50). According to the similar method to the above-mentioned, acetylcholinesterase inhibitory activity of distigmine which is a known acetylcholinesterase inhibitor was measured.

[3] = 10 minutes after administration minus before

T1 sequence (P22303 32-617 isoform P22303-2 limits assumed): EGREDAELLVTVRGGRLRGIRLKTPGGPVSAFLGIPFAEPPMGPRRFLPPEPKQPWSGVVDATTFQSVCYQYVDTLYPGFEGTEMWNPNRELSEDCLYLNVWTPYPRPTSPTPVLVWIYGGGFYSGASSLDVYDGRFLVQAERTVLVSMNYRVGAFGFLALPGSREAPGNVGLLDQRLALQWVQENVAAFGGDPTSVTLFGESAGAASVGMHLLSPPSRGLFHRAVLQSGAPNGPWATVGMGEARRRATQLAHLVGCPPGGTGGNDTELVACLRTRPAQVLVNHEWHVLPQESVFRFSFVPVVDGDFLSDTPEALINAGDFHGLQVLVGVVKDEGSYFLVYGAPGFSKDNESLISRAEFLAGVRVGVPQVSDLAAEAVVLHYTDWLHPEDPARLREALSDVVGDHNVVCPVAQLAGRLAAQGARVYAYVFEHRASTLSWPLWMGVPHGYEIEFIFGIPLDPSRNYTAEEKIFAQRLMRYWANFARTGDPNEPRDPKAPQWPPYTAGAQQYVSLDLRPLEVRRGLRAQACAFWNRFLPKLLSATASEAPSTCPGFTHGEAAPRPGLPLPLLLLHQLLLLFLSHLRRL

COc1ccccc1CCNCCCCCC(=O)c1cc2c3c(c1)CCN3C(=O)CC2.Cl [Example 20, 8-(6-[[2-(2-Methoxyphenyl)ethyl]amino]hexanoyl]-1,2,5,6-tetrahydro-4H-pyrrolo[3,2,1-ij]quinolin-4-one hydrochloride]
Blood pressure, after administration (Hartley male guinea pigs; average blood pressure 15 minutes after i.v. administration): 54.6 ± 2.8 mmHg
Blood pressure, before administration (Hartley male guinea pigs; average blood pressure just before i.v. administration): 53.5 ± 3.6 mmHg
change in bladder internal pressure (ΔPves(Qmax)) [1, 3]: −1.73 ± 1.54 cmH2O
change in maximum urine flow rate (ΔQmax) [1, 3]: 0.060 ± 0.016 mL/s
voiding efficiency (% of pre-value) ([1]; after administration relative to before): 150.1 ± 20.1 %
IC50 [2]: 179 nM
